Tested on: aged-impaired (AI) rats
Assay: Radial Arm Maze (RAM) task, spatial memory retention of aged-impaired rats
Format: in vivo, Long-Evans rats
Conditions: two-hour delay RAM
Procedure: FIG. 1 depicts the effects of administering levetiracetam on the spatial memory retention of ten aged-impaired rats (AI) in an eight-arm Radial Arm Maze (RAM) test. Six treatment conditions are employed: vehicle control, levetiracetam (1.25 mg/kg/day), levetiracetam (2.5 mg/kg/day), levetiracetam (5 mg/kg/day), levetiracetam (10 mg/kg/day) and levetiracetam (20 mg/kg/day). In the RAM task used, there is a one-hour delay between presentation of a subset of arms (5 arms available and 3 arms blocked) and completion of the eight-arm win-shift task (eight arms available). Rats are pre-treated 30-40 minutes before daily trials with a one-time drug/control treatment. The number of errors made by the rats during the retention phase is used as a measure of spatial memory retention. Errors are defined as instances when rats enter an arm from which food has already been retrieved in the pre-delay component of the trial or when rats re-visit an arm in the post-delay session that had already been visited. Paired t-tests are used to compare the number of errors between different doses of levetiracetam and vehicle control.
FIG. 2 depicts the effects of administering donepezil only and administering a combination of donepezil and levetiracetam on the spatial memory retention of eight aged-impaired rats (AI) in an eight-arm Radial Arm Maze (RAM) test. Four treatment conditions are employed: vehicle control, donepezil only (1 mg/kg/day), donepezil (2 mg/kg/day), and a combination of donepezil (1 mg/kg/day) and levetiracetam (2.5 mg/kg/day). In the RAM task used, there is a two-hour delay between presentation of a subset of arms (5 arms available and 3 arms blocked) and completion of the eight-arm win-shift task (eight arms available). Rats are pre-treated 30-40 minutes before daily trials with a one-time drug/control treatment. The number of errors made by the rats during the retention phase is used as a measure of spatial memory retention. Errors are defined as instances when rats enter an arm from which food has already been retrieved in the pre-delay component of the trial or when rats re-visit an arm in the post-delay session that have already been visited. Paired t-tests are used to compare the number of errors between different doses of drug treatment and vehicle control.
Aged, male Long-Evans rats were obtained at 8 to 9 months of age from Charles River Laboratories (Raleigh, N.C.) and housed in a vivarium until 24 to 26 months of age. All rats were individually housed at 25° C. and maintained on a 12 h light/dark cycle. Food and water were provided ad libitum unless noted otherwise. The rats were examined for health and pathogen-free status throughout the experiments, as well as necropsies at the time of killing.
All rats were screened in a standardized assessment of spatial cognition. This background assessment used the above-described well-established MWM protocol. […] The selected AI rats were tested for their memory of new spatial information in a Radial Arm Maze (RAM) task, under different drug/control treatment conditions: vehicle control, donepezil only, levetiracetam only, and a combination of donepezil and levetiracetam. The RAM task also extended the behavioral assessment to spatial memory using appetitive motivation. We used a protocol that allowed within-subject assessment across drugs at different doses and in combinations (Koh et al., Neuropsychopharmacology, epub. 1-10, (2009)).
The radial maze consisted of eight arms projecting from each side of an octagonal center platform, with food well located at the distal end of each arm. Plexiglasm blocks could be positioned to prevent entry into any arm. Extra-maze cues were provided in the room surrounding the maze and illumination was provided by an overhead light.

SMILES: COc1cc2c(cc1OC)C(=O)C(CC1CCN(Cc3ccccc3)CC1)C2 (stereo not shown) [donepezil, 2,3-dihydro-5,6-dimethoxy-2-((1-(phenylmethyl)-4-piperidinyl)methyl)-1H-inden-1-one]
- memory performance relative to vehicle control treatment (donepezil 1 mg/kg/day alone, t(7)=0, p=1.00): does not significantly improve memory performance
- average no. of errors ± standard error of the mean (SEM), retention test (donepezil 1 mg/kg/day i.p., AI rats n=8, vehicle control 2.88±0.67): 2.88±0.46
- memory performance relative to vehicle control treatment (donepezil 2 mg/kg/day alone, t(7)=0.91, p=0.930): does not significantly improve memory performance
- average no. of errors ± SEM, retention test (donepezil 2 mg/kg/day i.p., AI rats n=8, vehicle control 2.88±0.67): 2.81±0.43

Source: US20220265685A1, “METHODS AND COMPOSITIONS FOR IMPROVING COGNITIVE FUNCTION” (priority 2010, published 2022)
